The text below walks through data of patent publication US8518957B2, “Methanocarba adenosine derivatives, pharmaceutical compositions, and method of reducing intraocular pressure” (The United States of America, as represented by the …, priority 2009, dated 2013).

Assay [1] deals with T1, human A1 AR (Homo sapiens, UniProt P30542).
T1 construct: expressed in transfected cells
T1 sequence (P30542 1-326): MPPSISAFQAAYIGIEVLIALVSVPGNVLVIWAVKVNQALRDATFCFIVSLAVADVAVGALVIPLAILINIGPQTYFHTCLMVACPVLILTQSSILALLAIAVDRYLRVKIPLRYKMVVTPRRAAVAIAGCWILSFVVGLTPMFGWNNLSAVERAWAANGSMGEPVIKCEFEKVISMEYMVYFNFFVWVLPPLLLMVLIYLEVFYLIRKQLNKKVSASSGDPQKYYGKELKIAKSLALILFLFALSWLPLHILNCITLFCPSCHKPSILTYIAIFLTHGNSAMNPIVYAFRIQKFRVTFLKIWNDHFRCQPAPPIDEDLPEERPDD
The note with it: inhibition of radioligand binding at 10 μM; values from Tosh et al.; cited from earlier work.

Assay [2] deals with T2, human A3AR (Homo sapiens, UniProt P0DMS8).
T2 construct: expressed in transfected cells
T2 sequence (P0DMS8 1-318): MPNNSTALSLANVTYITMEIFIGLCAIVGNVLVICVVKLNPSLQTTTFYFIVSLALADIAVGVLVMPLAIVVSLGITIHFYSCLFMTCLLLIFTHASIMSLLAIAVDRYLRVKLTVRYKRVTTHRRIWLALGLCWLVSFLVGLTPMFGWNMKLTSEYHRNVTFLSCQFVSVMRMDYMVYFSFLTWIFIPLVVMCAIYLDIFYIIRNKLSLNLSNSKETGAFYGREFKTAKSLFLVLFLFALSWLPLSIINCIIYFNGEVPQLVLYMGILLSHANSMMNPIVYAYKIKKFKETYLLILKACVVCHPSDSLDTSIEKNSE
The note with it: at 10 μM, relative to NECA 10 μM; values from Tosh et al.; cited from earlier work.

Assay [3] deals with T3, hA2AAR (Homo sapiens, UniProt P29274).
T3 construct: expressed in transfected cells
T3 sequence (P29274 whole entry): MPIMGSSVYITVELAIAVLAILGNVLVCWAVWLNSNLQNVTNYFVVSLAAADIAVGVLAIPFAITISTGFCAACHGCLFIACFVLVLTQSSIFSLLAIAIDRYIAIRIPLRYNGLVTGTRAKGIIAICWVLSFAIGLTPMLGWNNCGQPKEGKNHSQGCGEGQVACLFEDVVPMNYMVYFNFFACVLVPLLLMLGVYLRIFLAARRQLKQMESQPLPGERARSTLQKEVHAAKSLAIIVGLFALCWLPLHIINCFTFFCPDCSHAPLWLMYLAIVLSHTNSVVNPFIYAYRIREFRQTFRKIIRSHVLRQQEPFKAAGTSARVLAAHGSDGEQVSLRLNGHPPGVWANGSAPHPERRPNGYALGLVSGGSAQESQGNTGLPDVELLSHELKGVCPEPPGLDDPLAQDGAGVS
The note with it: cited from earlier work.

Assay [4] has as its target T2, human A3AR. The experiment in a line: Radioligand binding at human A3 AR ([125I]I-AB-MECA, membranes of CHO cells). The protocol:
Test compounds were prepared as 5 mM stock solutions in DMSO and stored frozen at −20° C.
(§1) CHO cells stably expressing the recombinant hA1 and hA3Rs, and HEK-293 cells stably expressing the hA2AAR were cultured in Dulbecco's modified Eagle medium (DMEM) and F12 (1:1) supplemented with 10% fetal bovine serum, 100 units/mL penicillin, 100 μg/mL streptomycin, and […] glutamine. In addition, 800 μg/mL geneticin was added to the A2A media, while 500 μg/mL hygromycin was added to the A1 and A3 media. After harvesting, cells were homogenized and suspended in PBS. Cells were then centrifuged at 240 g for 5 min, and the pellet was resuspended in 50 mM Tris-HCl buffer (pH 7.5) containing 10 mM MgCl2. The suspension was homogenized and was then ultra-centrifuged at 14,330 g for 30 min at 4° C. The resultant pellets were resuspended in Tris buffer, incubated with adenosine deaminase (3 units/mL) for 30 min at 37° C. The suspension was homogenized with an electric homogenizer for 10 sec, pipetted into 1 mL vials and then stored at −80° C. until the binding experiments were conducted. The protein concentration was measured using the BCA Protein Assay Kit from Pierce Biotechnology, Inc. (Rockford, Ill.).
Into each tube in the binding assay was added 50 μL of increasing concentrations of the test ligand in Tris-HCl buffer (50 mM, pH 7.5) containing 10 mM MgCl2, 50 μl, of the appropriate agonist radioligand, and finally 100 μL of membrane suspension. […] For the A2AAR (20 μg/tube) the radioligand used was [^3H]37 (10 nM). […] Nonspecific binding was determined using a final concentration of 10 μM unlabeled 36 diluted with the buffer. The mixtures were incubated at 25° C. for 60 min in a shaking water bath. Binding reactions were terminated by filtration through Brandel GF/B filters under a reduced pressure using a M-24 cell harvester (Brandel, Gaithersburg, Md.). Filters were washed three times with 3 mL of 50 mM ice-cold Tris-HCl buffer (pH 7.5). […] Filters for A3AR binding were counted using a Packard Cobra II γ-counter. The Ki values were determined using GraphPad Prism for all assays.
Test compounds were prepared as 5-mM stock solutions in DMSO and stored frozen at −20° C.
(§2) Chinese hamster ovary (CHO) cells were generated by stably expressing the recombinant hA1 and hA3 and human embryonic kidney (HEK) 293 cells stably expressing the hA2AAR in DMEM and F12 (1:1) supplemented with 10% fetal bovine serum, 100 units/mL penicillin, 100 μg/mL streptomycin, and 2 μmol/mL glutamine. 800 μg/mL Geneticin were added to the A2A media and 500 μg/mL hygromycin to the A1 and A3 media. After harvesting the cells, they were homogenized with an electric homogenizer for 10 sec, pipetted them into 1-mL vials, and then stored them at −80° C. until the binding experiments were conducted. The protein concentration was measured with a BCA Protein Assay Kit from Pierce Biotechnology (Rockford, Ill.).
Each tube in the binding assay contained 50 μL of increasing concentrations of the test ligand in Tris-HCl buffer (50 mM, pH 7.5) containing 10 mM MgCl2, 50 μL of the appropriate agonist radioligand, and 100 μL membrane suspension, added sequentially. […] For the A2AAR (20 μg/tube), the radioligand [^3H]CGS21680 was used (−10 nM). […] The mixtures were incubated at 25° C. for 60 min in a shaking water bath. The binding reactions were terminated by filtration through Brandel GF/B filters under a reduced pressure with a M-24 cell harvester (Brandel, Gaithersburg, Md.). Filters were washed three times with 3 mL 50-mM ice-cold Tris-HCl buffer (pH 7.5). […] The filters were counted for A3AR binding with a Packard Cobra II γ-counter (PerkinElmer). The Ki values were determined with GraphPad Prism for all assays.

Assay [5] deals with T2, human A3AR. The experiment in a line: Cyclic AMP accumulation assay: inhibition of forskolin-stimulated cyclic AMP production in AR-transfected CHO cells. It is filed as cell-based. The note with it: at 10 μM, in comparison to the maximal effect of full agonist NECA at 10 μM. The procedure: Intracellular cyclic AMP levels were measured with a competitive protein binding method. […] CHO cells that expressed the recombinant human A3AR were harvested by trypsinization. After centrifugation and resuspended in medium, cells were planted in 24-well plates in 1.0 mL medium. After 24 h, the medium was removed and cells were washed three times with 1 mL DMEM, containing 50 mM HEPES, pH 7.4. […] After 45 min forskolin (10 μM) was added to the medium, and incubation was continued for an additional 15 min. […] The cell lysate was resuspended and stored at −20° C. For determination of cyclic AMP production, protein kinase A (PKA) was incubated with [^3H]cyclic AMP (2 nM) in K2HPO4/EDTA buffer (K2HPO4, 150 mM; EDTA, 10 mM), 20 μL of the cell lysate, and 30 μL 0.1 M HCl or 50 μL of cyclic AMP solution (0-16 pmol/200 μL for standard curve). Bound radioactivity was separated by rapid filtration through Whatman GF/C filters and washed once with cold buffer. Bound radioactivity was measured by liquid scintillation spectrometry.
Bound radioactivity was separated by rapid filtration through Whatman GF/C filters and washed the filters once with cold buffer. Bound radioactivity was measured with liquid scintillation spectrometry.

Assay [6] concerns the target T3, hA2AAR. The experiment in a line: Radioligand binding at human A2A AR ([3H]CGS21680, membranes of HEK-293 cells). The protocol: (§3) [^3H](2-[p-(2-Carboxyethyl)phenyl-ethylamino]-5′-N-ethylcarboxamido-adenosine) (37, [^3H]CGS21680, 40.5 Ci/mmol) and [^125I]N^6-(4-amino-3-iodobenzyl)adenosine-5′-N-methyluronamide (38, [^125I]I-AB-MECA, 2200 Ci/mmol) were purchased from Perkin-Elmer Life and Analytical Science (Boston, Mass.). Test compounds were prepared as 5 mM stock solutions in DMSO and stored frozen at −20° C.
as §1
(§4) Into each tube in the binding assay was added 50 μL of increasing concentrations of the test ligand in Tris-HCl buffer (50 mM, pH 7.5) containing 10 mM MgCl2, 50 μl, of the appropriate agonist radioligand, and finally 100 μL of membrane suspension. For the A1AR (22 μg of protein/tube) the radioligand used was [^3H]36 (final concentration of 3.5 nM). For the A2AAR (20 μg/tube) the radioligand used was [^3H]37 (10 nM). For the A3AR (21 μg/tube) the radioligand used was [^125I]38 (0.34 nM). Nonspecific binding was determined using a final concentration of 10 μM unlabeled 36 diluted with the buffer. The mixtures were incubated at 25° C. for 60 min in a shaking water bath. Binding reactions were terminated by filtration through Brandel GF/B filters under a reduced pressure using a M-24 cell harvester (Brandel, Gaithersburg, Md.). Filters were washed three times with 3 mL of 50 mM ice-cold Tris-HCl buffer (pH 7.5). Filters for A1 and A2AAR binding were placed in scintillation vials containing 5 mL of Hydrofluor scintillation buffer and counted using a Perkin Elmer Liquid Scintillation Analyzer (Tri-Carb 2810TR). Filters for A3AR binding were counted using a Packard Cobra II γ-counter. The Ki values were determined using GraphPad Prism for all assays.
(§5) [^3H](2-[p-(2-carboxyethyl)phenyl-ethylamino]-5′-N-ethylcarboxamido-adenosine) ([^3H]CGS21680, 40.5 Ci/mmol) and [^125I]N^6-(4-amino-3-iodobenzyl)adenosine-5′-N-methyluronamide ([^125I]I-AB-MECA, 2200 Ci/mmol) were purchased from PerkinElmer. Test compounds were prepared as 5-mM stock solutions in DMSO and stored frozen at −20° C.
as §2, with “Ill.). […]” for “Ill.).”

Assay [7] addresses T1, human A1 AR. The experiment in a line: Radioligand binding at human A1 AR ([3H]NECA, membranes of CHO cells). The following applies: for Ki: Example 7, agonist radioligand [3H]45, read-out: AR Affinity Ki, nM, A1. The procedure:
as §3, §1, §4, §5
as §2, with “Ill.). […]” for “Ill.).”

[8] abbreviates: Example 7, agonist radioligand [125I]47, read-out: AR Affinity Ki, nM, A3.

Like-named read-outs stand apart in the source and are kept apart here.

For `CNC(=O)C12CC1C(n1cnc3c(NCc4cccc(Cl)c4)nc(C#CCCC(=O)NCCNC(=O)CCCCC4SCC5NC(=O)NC54)nc31)C(O)C2O` (stereo not shown) [Compound 2], the “% inhibition, A1” value on human A1 AR [1] is recorded as “(1 ± 1%)”. In addition, on human A3AR [2], the “% Inhibition of cAMP formation at hA3 AR” value is listed as 84.5 ± 12.0%. The “% inhibition, A2A” value on hA2AAR [3] (inhibition of radioligand binding at 10 μM, values from Tosh et al.) is listed as “(51 ± 2%)”.

Turning to `CCCC#Cc1nc(NCc2cccc(Cl)c2)c2ncn(C3C(O)C(O)C4(C(=O)NC)CC34)c2n1` (stereo not shown) [Compound 104b], the “% inhibition, A2A” value on hA2AAR [3] (at 10 μM, model compounds, values from Tosh et al. and Melman et al.) is recorded as “(80%)”.

The Ki is a measure of affinity in units of concentration, obtained from inhibition or displacement. Regarding `C#CCCCC#Cc1nc(NCc2cccc(Cl)c2)c2ncn(C3C(O)C(O)C4(C(=O)NC)CC34)c2n1` (stereo not drawn) [Compound 8, (1′S, 2′R, 3′S, 4′S, 5′S)-4′-[6-(3-Chlorobenzylamino)-2-(1,6-heptadiynyl)-9H-purin-9-yl]-2′,3′-dihydroxybicyclo[3.1.0]hexane-1′-carboxylic acid N-methylamide], the Ki at human A3AR [4] ([125I]38, CHO cells, read-out: Affinity (Ki, nM), A3) was found to be 23.6 ± 3.9 nM; at hA2AAR [6] ([3H]37, HEK293 cells, read-out: Affinity (Ki, nM), A2A), 4330 ± 500 nM. The “% Inhibition of cAMP formation at hA3 AR” value at human A3AR [5] is reported as 18.3 ± 7.6%.

The inhibition is the relative decrease from the control value, in per cent. A high value points to a strong effect. On to `O[C@@H]1[C@H](O)[C@@H]2C[C@@H]2[C@H]1n1cnc2c(NCc3cn(C45CC6CC(CC(C6)C4)C5)nn3)nc(Cl)nc21` [Compound 224], for which the Ki at human A3AR [4] (setting [8]) was found to be 2190 ± 160 nM. Further, the inhibition at 10 µM at human A1 AR [7] was found to be 38.6%; on hA2AAR [6] it was 22.5%.

For the molecule `CNC(=O)[C@@]12C[C@@H]1[C@@H](n1cnc3c(NCc4cccc(C#CCCCCCc5cn(-c6ccc(F)c([N+](=O)[O-])c6)nn5)c4)nc(Cl)nc31)[C@H](O)[C@@H]2O` [Compound 205, (1S,2R,3S,4R,5S)-4-(2-Chloro-6-(3-(7-(1-(4-fluoro-3-nitrophenyl)-1H-1,2,3-triazol-4-yl)hept-1-ynyl)benzylamino)-9H-purin-9-yl)-2,3-dihydroxybicyclo[3.1.0]hexane-1-carboxylic acid-N-methylamide], the Ki was found to be 30.1 ± 13 nM at human A3AR [4] (setting [8]) and 1290 ± 290 nM on human A1 AR [7]. Besides, the inhibition at 10 µM at hA2AAR [6] was determined as 25.2%.

Turning to `CNC(=O)[C@@]12C[C@@H]1[C@@H](n1cnc3c(NCc4cccc(C#CCCCCc5cn(C67CC8CC(CC(C8)C6)C7)nn5)c4)nc(Cl)nc31)[C@H](O)[C@@H]2O` [Compound 206, (1S,2R,3S,4R,5S)-4-(2-Chloro-6-(3-(6-(1-(adamantyl)-1H-1,2,3-triazol-4-yl)hex-1-ynyl)benzylamino)-9H-purin-9-yl)-2,3-dihydroxybicyclo[3.1.0]hexane-1-carboxylic acid-N-methylamide], the results for the Ki at human A3AR [4] (setting [8]) and at human A1 AR [7] were 21.8 ± 5.3 nM and 1720 ± 240 nM, respectively. This molecule yielded an inhibition at 10 µM on hA2AAR [6] of 17%.

Turning to `O=[N+]([O-])c1cc(-n2cc(CNc3nc(Cl)nc4c3ncn4[C@H]3[C@H](O)[C@H](O)[C@@H]4C[C@@H]43)nn2)ccc1F` [Compound 223], the Ki on human A3AR [4] (setting [8]) is 388 ± 170 nM. Moreover, the results for the inhibition at 10 µM on human A1 AR [7] and on hA2AAR [6] were 44.7% and 19.2%, respectively.
